Experimental data as given in publication PMC5453931, “Cathelicidin-trypsin inhibitor loop conjugate represents a promising antibiotic candidate with protease stability” (Scientific Reports, 2017).
Values after ≈ are worked out from the molar mass of the structure shown. Where a SMILES comes first, the peptide text is derived from it.

Columns and labels:
Format in all cases: cell-based
Conditions in all cases: two-fold broth microdilution, MH broth, 37 °C, 18 h, A595; mean of three independent experiments in duplicate
P. aeruginosa = system: P. aeruginosa
Protocol: (§1) A two-fold broth microdilution method described in our previous paper was used to determine the antimicrobial activities of parental and hybrid peptides. More than 30 strains including Gram-negative bacteria, Gram-positive bacteria and fungi were used in the current assay, in which the standard strains were stored in our lab and the clinical strains were collected from local hospitals. Briefly, bacteria were incubated in Mueller-Hinton broth (MH broth) at 37 °C to exponential phase and diluted to 10^6 CFU/mL. A serial dilution of peptide sample were prepared in 96-well microtiter plates (50 μL) and mixed with equal volume of microbial inoculums (50 μL). The plate was slowly shaken in the microbial incubator, and measured at A595 after incubation at 37 °C for 18 h. The minimal concentrations at which no microbial growth occurred were recorded as MIC (minimal inhibitory concentration) values. The traditional antibiotic ampicillin was used as positive control. The results are shown in an average of the MICs obtained from three independent experiments.

C. albican = system: C. albican
Protocol: as §1

B. subtilis = system: B. subtilis
Protocol: as §1

S. aureus = system: S. aureus
Protocol: as §1

S. dysenteria = system: S. dysenteria
Protocol: as §1

P. mirabilis = system: P. mirabilis
Protocol: as §1

E. coli = system: E. coli
Protocol: as §1

CC[C@H](C)[C@H](NC(=O)[C@H](CC(C)C)NC(=O)[C@H](CCCNC(=N)N)NC(=O)[C@@H]1CCCN1C(=O)[C@H](CCCCN)NC(=O)[C@H](CCCCN)NC(=O)[C@H](CCCNC(=N)N)NC(=O)[C@H](Cc1ccccc1)NC(=O)[C@H](CCCCN)NC(=O)[C@H](CCCCN)NC(=O)[C@@H](NC(=O)[C@H](C)NC(=O)[C@H](CCCNC(=N)N)NC(=O)[C@H](CCCNC(=N)N)NC(=O)[C@@H](NC(=O)[C@H](CO)NC(=O)[C@H](CCCCN)NC(=O)[C@H](CC(C)C)NC(=O)[C@H](CC(C)C)NC(=O)[C@H](CCCNC(=N)N)NC(=O)[C@H](CCCCN)NC(=O)[C@H](Cc1ccccc1)NC(=O)[C@H](Cc1ccccc1)NC(=O)[C@@H](N)CCCCN)C(C)C)C(C)C)C(=O)NCC(=O)N[C@@H](CC(C)C)C(=O)N[C@@H](CO)C(=O)N[C@H](C(=O)N[C@@H](CC(C)C)C(=O)N[C@@H](CC(C)C)C(=O)O)[C@@H](C)O [Hc-CATH, reference compound] (H-KFFKRLLKSVRRAVKKFRKKPRLIGLSTLL-OH)
MIC P. aeruginosa (P. aeruginosa): 18.75 µg/mL (≈ 5.17 µM)
MIC C. albican (C. albican): 4.69 µg/mL (≈ 1.29 µM)
MIC B. subtilis (B. subtilis): 75 µg/mL (≈ 20.7 µM)
MIC S. aureus (S. aureus): 4.69 µg/mL (≈ 1.29 µM)
MIC S. dysenteria (S. dysenteria): 0.59 µg/mL (≈ 0.163 µM)
MIC P. mirabilis (P. mirabilis): 4.69 µg/mL (≈ 1.29 µM)
MIC E. coli (E. coli): 2.34 µg/mL (≈ 0.645 µM)
